The target of data set [1] is Protein farnesyltransferase (Homo sapiens, UniProt P49354+P49356). As to the kind of experiment: Inhibition of FTase (unknown origin) assessed as transfer of [H3]farnesyl from [H3]farnesyl pyrophosphate to trichloroacetic acid-precipitable HaRas-CVLS. Format: protein-complex assay.
For data set [2], the system named is NIH-H. As to the kind of experiment: Inhibition of inhibit anchorage-independent growth of […] NIH-H cells in soft agar by colony forming assay. The data set is classed as functional, cell-based.
The nature of data set [3]: AUC (0 to 6 hrs) in rat at 10 mg/kg. The data set is classed as ADME, organism-based. The arrangement: time < 6 hr, dose 10 mg/kg. The following applies: plasma.
The nature of data set [4]: Ratio of IC50 for […] NIH-H cells to IC50 for FTase (unknown origin).
Data set [5] concerns Mus musculus. The data set is described as follows: Antitumor activity in wap-ras transgenic mouse assessed as tumor regression at 25 to 40 mg/kg bid for 4 weeks. The data set is classed as functional, organism-based.
A short description of data set [6]: Oral bioavailability in monkey at 5 mg/kg. The data set is classed as ADME, organism-based, Macaca mulatta. Conditions: rhesus monkey, in vivo.
A short description of data set [7]: AUC in monkey at 25 mg/kg, po. The data set is classed as ADME, organism-based, Macaca mulatta. The arrangement: dose 25 mg/kg, route oral. The following applies: rhesus monkey, plasma.
Data set [8] is described as follows: Cmax in dog at 25 mg/kg, po. The data set is classed as ADME, organism-based, Canis lupus familiaris. More on the design: dose 25 mg/kg, route oral. The following applies: in vivo.
The target in data set [9] is Cytochrome P450 3A4 (Homo sapiens, UniProt P08684). As to the kind of experiment: Inhibition of CYP3A4 (unknown origin). Format: ADME.
The subject of data set [10] is Mus musculus. The data set is described as follows: Antitumor activity in wap-ras transgenic mouse assessed as tumor growth inhibition and tumor regression administered bid for 4 weeks. Format: functional, organism-based.
Data set [11] can be described thus: AUC in dog at 25 mg/kg, po. Format: ADME, organism-based, Canis lupus familiaris. More on the design: dose 25 mg/kg, route oral. Conditions: plasma.
Data set [12] concerns Mus musculus. The data set is described as follows: Antitumor activity in wap-ras transgenic mouse assessed as tumor stasis at 10 mg/kg bid for 4 weeks. More on the design: dose 10 mg/kg. The data set is classed as functional, organism-based.
Data set [13] in a line: AUC in mouse at 25 mg/kg, po. The data set is classed as ADME, organism-based. The arrangement: dose 25 mg/kg, route oral. The following applies: plasma.
A short description of data set [14]: AUC in rat at 10 mg/kg, po. Format: ADME, organism-based. The arrangement: dose 10 mg/kg, route oral. The following applies: plasma.
Data set [15] is described as follows: Oral bioavailability in mouse at 25 mg/kg. Conditions: in vivo. Format: ADME, organism-based.
Data set [16] is described as follows: Oral bioavailability in rat at 10 mg/kg. Format: ADME, organism-based. Conditions: in vivo.
The subject of data set [17] is Mus musculus. As to the kind of experiment: Antitumor activity in wap-ras transgenic mouse assessed as tumor growth inhibition at 3 mg/kg bid for 4 weeks. Format: functional, organism-based. The arrangement: dose 3 mg/kg.
Data set [18] in a line: Oral bioavailability in dog at 5 mg/kg. Format: ADME, organism-based, Canis lupus familiaris. Conditions: in vivo.
Data set [19] relates to Mus musculus. As to the kind of experiment: Toxicity in wap-ras transgenic mouse assessed as change in body weight at 3 to 40 mg/kg bid for 4 weeks. Format: organism-based. More on the design: dose 3-40 mg/kg. Conditions: in vivo, 672 h.
A short description of data set [20]: Cmax in rat at 10 mg/kg, po. Conditions: in vivo. The data set is classed as ADME, organism-based. The arrangement: dose 10 mg/kg, route oral.
Data set [21] can be described thus: Cmax in mouse at 25 mg/kg, po. Format: ADME, organism-based. More on the design: dose 25 mg/kg, route oral. Conditions: in vivo.
Data set [22] in a line: Cmax in monkey at 25 mg/kg, po. The data set is classed as ADME, organism-based, Macaca mulatta. The arrangement: dose 25 mg/kg, route oral. The following applies: rhesus monkey, in vivo.

Active and inactive are the calls of the source. No cut-off for these calls is given here.

As a reminder, the IC50 is the concentration that gives 50% inhibition. The AUC(0-t) is exposure summed from dosing to a finite time, without extrapolation to infinity. As usually defined, the bioavailability is the share of a dose that reaches the circulation, judged against a reference dose that is usually intravenous. A word on the AUC: it is concentration integrated over time. As usually defined, the Cmax is the maximum level reached in the sampled fluid or tissue.

Chain of Cytochrome P450 3A4 (P08684 whole entry): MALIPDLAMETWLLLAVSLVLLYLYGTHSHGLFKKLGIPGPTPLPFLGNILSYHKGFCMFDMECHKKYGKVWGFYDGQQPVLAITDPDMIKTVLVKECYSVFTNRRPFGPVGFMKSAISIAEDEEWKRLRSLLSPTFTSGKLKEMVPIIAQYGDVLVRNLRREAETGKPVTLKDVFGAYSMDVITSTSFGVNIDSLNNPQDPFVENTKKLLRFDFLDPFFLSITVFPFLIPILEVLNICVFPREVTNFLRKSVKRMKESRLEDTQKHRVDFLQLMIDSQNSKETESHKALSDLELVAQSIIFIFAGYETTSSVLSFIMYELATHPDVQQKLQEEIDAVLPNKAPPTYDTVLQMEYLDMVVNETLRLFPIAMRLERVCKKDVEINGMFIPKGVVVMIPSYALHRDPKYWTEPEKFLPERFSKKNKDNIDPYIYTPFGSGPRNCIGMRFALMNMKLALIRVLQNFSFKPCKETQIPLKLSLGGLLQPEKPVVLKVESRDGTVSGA

For `Cn1cncc1[C@@](C)(O)C1=Cc2cccnc2[C@@H](N2CCN(C(=O)NC(C)(C)C)CC2)c2ccc(Cl)cc21`, the IC50 stood at 0.9 nM in data set [1] and 5 nM in [2].
`Cn1cncc1C(=O)[C@@]12C[C@@H]1c1cccnc1[C@@H](N1CCN(C(=O)OC(C)(C)C)CC1)c1ccc(Cl)cc12`: the values for the IC50 in data set [1] and in data set [2] were 3.2 nM and 8 nM, respectively.
`Cn1cncc1[C@](C)(O)C1=Cc2cccnc2[C@@H](N2CCN(C(=O)OC3(C)CCCCC3)CC2)c2ccc(Cl)cc21`: in data set [2], the IC50 is 45 nM.
As to `Cn1cncc1[C@@](C)(O)C1=Cc2cccnc2[C@@H](N2CCN(C(=O)OC3CCCCC3)CC2)c2ccc(Cl)cc21`, the figures for the half-inhibitory concentration (IC50) in [1] and in data set [2] were 1.7 nM and 3.5 nM, respectively.
In the same order, the values of `Cn1cncc1[C@](C)(O)C1=Cc2cccnc2[C@@H](N2CCN(C(=O)OC3CCCCC3)CC2)c2ccc(Cl)cc21` are 1.4 nM and 6.2 nM.
In the same order, the values of `Cn1cncc1[C@](C)(O)C1=Cc2cccnc2[C@@H](N2CCN(C(=O)OC3CCCC3)CC2)c2ccc(Cl)cc21` are 0.6 nM and 32 nM.
Taken in the same sequence, the figures for `Cn1cncc1[C@@](C)(O)C1=Cc2cccnc2[C@@H](N2CCN(C(N)=O)CC2)c2ccc(Cl)cc21` were 0.1 nM and > 100 nM.
As for `Cn1cncc1[C@@](C)(O)C1=Cc2cccnc2[C@@H](N2CCN(C(=O)Nc3ccc(C#N)cc3)CC2)c2ccc(Cl)cc21`, the figures for the 50% inhibitory concentration (IC50) in data set [1] and in data set [2] were 0.8 nM and 2 nM, respectively.
Taken in the same sequence, the figures for `Cn1cncc1C(C)(O)[C@]12C[C@H]1c1cccnc1[C@@H](N1CCN(C(=O)OC(C)(C)C)CC1)c1ccc(Cl)cc12` (stereo partly specified) were > 18 nM and > 100 nM.
Taken in the same sequence, the figures for `CC(C)OC(=O)N1CCN([C@H]2c3ccc(Cl)cc3C([C@](C)(O)c3cncn3C)=Cc3cccnc32)CC1` were 0.2 nM and 2 nM.
`Cn1cncc1[C@](C)(O)C1=Cc2cccnc2[C@@H](N2CCN(C(=O)OC(C)(C)C)CC2)c2ccc(Cl)cc21`: the IC50 was 2.6 nM in data set [1] and 30 nM in data set [2]. This compound yielded an AUC(0-t) at 6 h in data set [3] of 3.1 µM·h.
As for `Cn1cncc1[C@](C)(O)C1=Cc2cccnc2[C@@H](N2CCN(C(=O)NC(C)(C)C)CC2)c2ccc(Cl)cc21`, the IC50 in data set [1] was 0.7 nM; in data set [2] it was 37 nM.
In the same order, the values of `Cn1cncc1[C@@](C)(O)C1=Cc2cccnc2[C@@H](N2CCN(C(=O)OC3CCCC3)CC2)c2ccc(Cl)cc21` are 0.6 nM and 2 nM.
With `Cn1cncc1C(=O)C1=Cc2cccnc2[C@@H](N2CCN(C(=O)OC(C)(C)C)CC2)c2ccc(Cl)cc21`, the IC50 in data set [1] is > 18 nM.
Take `Cn1cncc1[C@](C)(O)C1=Cc2cccnc2[C@@H](N2CCN(C(=O)NC3CCCCC3)CC2)c2ccc(Cl)cc21`: the IC50 in data set [1] is 0.4 nM; in data set [2], 1.7 nM.
With `Cn1cncc1C(C)(O)[C@@]12C[C@@H]1c1cccnc1[C@@H](N1CCN(C(=O)OC(C)(C)C)CC1)c1ccc(Cl)cc12` (stereo partly specified), the IC50 in data set [1] turned out to be 1.9 nM; in data set [2] it was 60 nM. In addition, in [4], the “Ratio IC50” value was >30.
Take `Cn1cncc1[C@@H](O)C1=Cc2cccnc2[C@@H](N2CCN(C(=O)OC(C)(C)C)CC2)c2ccc(Cl)cc21`: the IC50 in [1] was found to be 12 nM.
On to `CC(C)OC(=O)N1CCN([C@H]2c3ccc(Cl)cc3C([C@@](C)(O)c3cncn3C)=Cc3cccnc32)CC1`, for which the IC50 in data set [1] was found to be 0.6 nM; in data set [2], 10 nM.
Taken in the same sequence, the figures for `Cn1cncc1[C@](C)(O)C1=Cc2cccnc2[C@@H](N2CCN(C(N)=O)CC2)c2ccc(Cl)cc21` were > 20 nM and > 100 nM.
`Cn1cncc1[C@@](C)(O)C1=Cc2cccnc2[C@@H](N2CCN(C(=O)OC3(C)CCCCC3)CC2)c2ccc(Cl)cc21`: the IC50 in data set [1] worked out at 5.5 nM; in data set [2] it was 2 nM.
With `Cn1cncc1[C@](C)(O)C1=Cc2cccnc2[C@@H](N2CCN(C(=O)Nc3ccc(C#N)cc3)CC2)c2ccc(Cl)cc21`, the half-maximal inhibitory concentration (IC50) in data set [1] came out at 1.8 nM; in data set [2] it was 4 nM.
Regarding `Cn1cncc1[C@H](O)C1=Cc2cccnc2[C@@H](N2CCN(C(=O)OC(C)(C)C)CC2)c2ccc(Cl)cc21`, the 50% inhibitory concentration (IC50) worked out at 0.3 nM in data set [1] and 0.5 nM in data set [2].
For `Cn1cncc1C(C)(O)C1=Cc2cccnc2[C@@H](N2CCN(C(=O)OC(C)(C)C)CC2)c2ccc(Cl)cc21` (mixture of isomers), the IC50 in [1] came to 1.8 nM; in [2] it was 10 nM.
In the case of `Cn1cncc1[C@@](C)(O)C1=Cc2cccnc2[C@@H](N2CCN(C(=O)OC(C)(C)C)CC2)c2ccc(Cl)cc21`, the half-maximal inhibitory concentration (IC50) was 1.4 nM in data set [1], 300 nM in data set [9] and 1.3 nM in data set [2]. In addition, the result in [5] and in data set [12] was Active. Further, the bioavailability in data set [6], in data set [15], in [16] and in [18] was 34% throughout. For the same compound, the AUC in data set [7] was found to be 3.2 µM·h; in data set [11], 1.8 µM·h; in [13], 82 µM·h; in [14] it was 8.4 µM·h. Further, the maximum concentration (Cmax) in data set [8] was determined as 600 nM; in data set [20] it was 1500 nM; in [21] it was 18000 nM; in data set [22], 700 nM. In addition, the Activity entry in [10] is “Dose-dependent effect”; in data set [19] it was “Non-toxic”. Also, in data set [17], the TGI entry is “Active”.
Turning to `Cn1cncc1C(=O)[C@]12C[C@H]1c1cccnc1[C@@H](N1CCN(C(=O)OC(C)(C)C)CC1)c1ccc(Cl)cc12`, the IC50 was 3.2 nM in [1] and 6 nM in data set [2].
Taken in the same sequence, the figures for `Cn1cncc1[C@@](C)(O)C1=Cc2cccnc2[C@@H](N2CCN(C(=O)NC3CCCCC3)CC2)c2ccc(Cl)cc21` were 0.1 nM and 0.9 nM.
In the same order, the values of `CCC(O)(C1=Cc2cccnc2[C@@H](N2CCN(C(=O)OC(C)(C)C)CC2)c2ccc(Cl)cc21)c1cncn1C` (mixture of isomers) are 5 nM and 50 nM.

The values above are taken from ChEMBL document CHEMBL3112503, “New class of azaheptapyridine FPT inhibitors as potential cancer therapy agents” (Bioorg Med Chem Lett, 2014).
